# Source: the kinase profiling compilation of Christmann-Franck et al. (2016)
# Columns and labels:
# Test in all cases: radiometric filter-binding kinase assay, Kinase HotSpot
# Conditions in all cases: compound 0.5 µM; ATP 10 µM
# PASK (human) = PASK (human) (UniProt Q96RG2)
# CHEK2 (human) = CHEK2 (human) (UniProt O96017)
# EPHA5 (human) = EPHA5 (human) (UniProt P54756)
# MERTK (human) = MERTK (human) (UniProt Q12866)
# TGFBR2 (human) = TGFBR2 (human) (UniProt P37173)
# HIPK4 (human) = HIPK4 (human) (UniProt Q8NE63)
# RPS6KA5 KD2 (human) = RPS6KA5 KD2 (human) (UniProt O75582)
# MAP2K1 (human) = MAP2K1 (human) (UniProt Q02750)
# Sequence of MAP2K1 (human) (Q02750 whole entry, looked up): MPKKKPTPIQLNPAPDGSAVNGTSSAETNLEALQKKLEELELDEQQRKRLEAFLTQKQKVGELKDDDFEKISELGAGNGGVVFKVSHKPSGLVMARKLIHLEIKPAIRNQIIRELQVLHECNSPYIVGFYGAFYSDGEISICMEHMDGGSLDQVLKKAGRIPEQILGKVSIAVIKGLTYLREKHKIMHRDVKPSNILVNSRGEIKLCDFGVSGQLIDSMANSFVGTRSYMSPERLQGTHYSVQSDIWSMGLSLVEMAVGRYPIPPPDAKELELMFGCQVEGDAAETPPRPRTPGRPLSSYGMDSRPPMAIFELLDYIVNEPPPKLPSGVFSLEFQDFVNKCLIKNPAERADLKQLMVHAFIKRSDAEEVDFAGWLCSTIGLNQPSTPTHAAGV
# DYRK1A (human) = DYRK1A (human) (UniProt Q13627)
# PDGFRA (human) = PDGFRA (human) (UniProt P16234)
# TSSK2 (human) = TSSK2 (human) (UniProt Q96PF2)
# MAPKAPK5 (human) = MAPKAPK5 (human) (UniProt Q8IW41)
# DDR2 (human) = DDR2 (human) (UniProt Q16832)
# Sequence of DDR2 (human) (Q16832 whole entry, looked up): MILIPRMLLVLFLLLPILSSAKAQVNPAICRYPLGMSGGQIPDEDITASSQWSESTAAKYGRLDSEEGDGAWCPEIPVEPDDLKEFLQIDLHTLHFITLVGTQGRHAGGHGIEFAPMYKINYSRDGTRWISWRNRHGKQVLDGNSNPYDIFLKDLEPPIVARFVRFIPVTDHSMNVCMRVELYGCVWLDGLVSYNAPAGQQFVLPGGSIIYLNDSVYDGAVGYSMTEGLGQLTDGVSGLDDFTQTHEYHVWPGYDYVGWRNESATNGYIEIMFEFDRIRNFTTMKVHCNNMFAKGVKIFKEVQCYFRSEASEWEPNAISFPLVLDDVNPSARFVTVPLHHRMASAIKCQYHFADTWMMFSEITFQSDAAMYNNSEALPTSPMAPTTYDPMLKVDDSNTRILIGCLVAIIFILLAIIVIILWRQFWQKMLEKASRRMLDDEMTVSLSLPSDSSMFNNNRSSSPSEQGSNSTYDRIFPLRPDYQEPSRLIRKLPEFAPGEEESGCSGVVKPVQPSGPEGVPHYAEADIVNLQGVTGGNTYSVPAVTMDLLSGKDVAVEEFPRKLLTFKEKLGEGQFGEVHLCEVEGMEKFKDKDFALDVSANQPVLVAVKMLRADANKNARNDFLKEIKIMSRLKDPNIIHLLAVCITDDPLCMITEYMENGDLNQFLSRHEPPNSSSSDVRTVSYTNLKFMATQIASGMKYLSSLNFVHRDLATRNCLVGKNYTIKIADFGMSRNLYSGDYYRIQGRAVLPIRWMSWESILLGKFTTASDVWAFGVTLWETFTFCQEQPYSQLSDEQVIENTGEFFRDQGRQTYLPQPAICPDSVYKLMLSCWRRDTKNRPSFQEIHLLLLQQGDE
# NEK6 (human) = NEK6 (human) (UniProt Q9HC98)
# BLK (human) = BLK (human) (UniProt P51451)
# MUSK (human) = MUSK (human) (UniProt O15146)
# GRK4 (human) = GRK4 (human) (UniProt P32298)
# DAPK2 (human) = DAPK2 (human) (UniProt Q9UIK4)
# PAK1 (human) = PAK1 (human) (UniProt Q13153)
# NEK9 (human) = NEK9 (human) (UniProt Q8TD19)
# CDK4 CCND1 (human) = CDK4 CCND1 (human) (UniProt P24385+P11802)
# PIM2 (human) = PIM2 (human) (UniProt Q9P1W9)
# ERBB2 (human) = ERBB2 (human) (UniProt P04626)
# CSNK2A2 (human) = CSNK2A2 (human) (UniProt P19784)
# WNK2 (human) = WNK2 (human) (UniProt Q9Y3S1)
# ULK2 (human) = ULK2 (human) (UniProt Q8IYT8)
# IKBKE (human) = IKBKE (human) (UniProt Q14164)
# MARK2 (human) = MARK2 (human) (UniProt Q7KZI7)
# EPHB4 (human) = EPHB4 (human) (UniProt P54760)
# CSNK1D (human) = CSNK1D (human) (UniProt P48730)
# MINK1 (human) = MINK1 (human) (UniProt Q8N4C8)
# FRK (human) = FRK (human) (UniProt P42685)
# PRKD1 (human) = PRKD1 (human) (UniProt Q15139)
# CLK4 (human) = CLK4 (human) (UniProt Q9HAZ1)
# CSF1R (human) = CSF1R (human) (UniProt P07333)
# SRPK2 (human) = SRPK2 (human) (UniProt P78362)
# MAPK9 (human) = MAPK9 (human) (UniProt P45984)
# SRMS (human) = SRMS (human) (UniProt Q9H3Y6)
# PIM1 (human) = PIM1 (human) (UniProt P11309)
# BRSK2 (human) = BRSK2 (human) (UniProt Q8IWQ3)
# Sequence of BRSK2 (human) (Q8IWQ3 whole entry, looked up): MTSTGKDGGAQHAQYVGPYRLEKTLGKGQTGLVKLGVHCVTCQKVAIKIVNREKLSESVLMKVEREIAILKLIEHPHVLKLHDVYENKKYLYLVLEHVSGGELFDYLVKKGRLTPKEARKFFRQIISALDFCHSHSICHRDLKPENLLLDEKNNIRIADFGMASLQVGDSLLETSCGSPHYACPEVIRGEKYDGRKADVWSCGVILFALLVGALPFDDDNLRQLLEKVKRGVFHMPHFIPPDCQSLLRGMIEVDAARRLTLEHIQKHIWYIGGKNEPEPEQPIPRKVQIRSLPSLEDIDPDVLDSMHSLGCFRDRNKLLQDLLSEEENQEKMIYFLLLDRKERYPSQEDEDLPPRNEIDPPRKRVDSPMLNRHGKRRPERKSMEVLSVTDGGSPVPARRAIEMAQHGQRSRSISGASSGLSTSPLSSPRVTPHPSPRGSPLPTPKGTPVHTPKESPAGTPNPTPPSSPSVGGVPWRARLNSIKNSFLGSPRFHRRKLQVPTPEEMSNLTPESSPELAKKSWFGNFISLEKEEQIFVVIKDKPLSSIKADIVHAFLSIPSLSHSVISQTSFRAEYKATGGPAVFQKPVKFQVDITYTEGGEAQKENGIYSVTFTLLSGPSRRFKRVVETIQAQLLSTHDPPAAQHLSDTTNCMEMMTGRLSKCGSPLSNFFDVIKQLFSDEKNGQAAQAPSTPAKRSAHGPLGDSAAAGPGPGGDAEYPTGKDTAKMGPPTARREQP
# MAP3K14 (human) = MAP3K14 (human) (UniProt Q99558)
# MAP4K4 (human) = MAP4K4 (human) (UniProt O95819)
# Sequence of MAP4K4 (human) (O95819 whole entry, looked up): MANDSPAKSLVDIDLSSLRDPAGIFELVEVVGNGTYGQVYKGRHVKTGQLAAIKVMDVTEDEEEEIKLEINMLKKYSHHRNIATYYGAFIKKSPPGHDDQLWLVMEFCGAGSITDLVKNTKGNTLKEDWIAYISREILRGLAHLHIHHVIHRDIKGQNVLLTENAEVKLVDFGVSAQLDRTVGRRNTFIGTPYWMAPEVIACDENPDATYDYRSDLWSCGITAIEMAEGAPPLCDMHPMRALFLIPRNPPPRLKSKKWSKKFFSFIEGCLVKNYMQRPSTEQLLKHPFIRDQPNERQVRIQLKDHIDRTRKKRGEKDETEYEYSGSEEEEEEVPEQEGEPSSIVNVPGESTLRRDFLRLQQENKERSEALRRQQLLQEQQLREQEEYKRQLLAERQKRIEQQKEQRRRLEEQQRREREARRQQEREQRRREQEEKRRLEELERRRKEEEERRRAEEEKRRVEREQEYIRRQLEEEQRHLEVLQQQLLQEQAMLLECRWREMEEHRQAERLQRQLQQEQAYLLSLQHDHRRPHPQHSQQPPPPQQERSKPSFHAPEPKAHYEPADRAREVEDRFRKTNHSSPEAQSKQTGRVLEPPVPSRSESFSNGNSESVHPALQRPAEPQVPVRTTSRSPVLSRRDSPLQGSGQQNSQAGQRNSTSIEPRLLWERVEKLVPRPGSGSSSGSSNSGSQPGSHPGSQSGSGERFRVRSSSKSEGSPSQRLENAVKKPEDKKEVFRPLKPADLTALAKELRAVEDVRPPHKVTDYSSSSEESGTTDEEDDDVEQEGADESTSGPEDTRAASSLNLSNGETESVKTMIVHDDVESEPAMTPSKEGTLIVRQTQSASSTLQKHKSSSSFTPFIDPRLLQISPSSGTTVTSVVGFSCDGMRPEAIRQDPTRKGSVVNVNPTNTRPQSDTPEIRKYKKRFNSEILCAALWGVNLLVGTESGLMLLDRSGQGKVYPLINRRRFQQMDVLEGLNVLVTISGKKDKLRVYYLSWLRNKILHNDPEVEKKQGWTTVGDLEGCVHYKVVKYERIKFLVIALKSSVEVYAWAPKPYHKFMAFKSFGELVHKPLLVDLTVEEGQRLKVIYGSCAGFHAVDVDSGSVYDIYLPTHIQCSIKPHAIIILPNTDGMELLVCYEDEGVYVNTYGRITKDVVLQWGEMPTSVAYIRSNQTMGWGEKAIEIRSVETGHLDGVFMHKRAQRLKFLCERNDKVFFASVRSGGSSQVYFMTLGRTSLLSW
# Sequence of PASK (human) (Q96RG2 whole entry, looked up): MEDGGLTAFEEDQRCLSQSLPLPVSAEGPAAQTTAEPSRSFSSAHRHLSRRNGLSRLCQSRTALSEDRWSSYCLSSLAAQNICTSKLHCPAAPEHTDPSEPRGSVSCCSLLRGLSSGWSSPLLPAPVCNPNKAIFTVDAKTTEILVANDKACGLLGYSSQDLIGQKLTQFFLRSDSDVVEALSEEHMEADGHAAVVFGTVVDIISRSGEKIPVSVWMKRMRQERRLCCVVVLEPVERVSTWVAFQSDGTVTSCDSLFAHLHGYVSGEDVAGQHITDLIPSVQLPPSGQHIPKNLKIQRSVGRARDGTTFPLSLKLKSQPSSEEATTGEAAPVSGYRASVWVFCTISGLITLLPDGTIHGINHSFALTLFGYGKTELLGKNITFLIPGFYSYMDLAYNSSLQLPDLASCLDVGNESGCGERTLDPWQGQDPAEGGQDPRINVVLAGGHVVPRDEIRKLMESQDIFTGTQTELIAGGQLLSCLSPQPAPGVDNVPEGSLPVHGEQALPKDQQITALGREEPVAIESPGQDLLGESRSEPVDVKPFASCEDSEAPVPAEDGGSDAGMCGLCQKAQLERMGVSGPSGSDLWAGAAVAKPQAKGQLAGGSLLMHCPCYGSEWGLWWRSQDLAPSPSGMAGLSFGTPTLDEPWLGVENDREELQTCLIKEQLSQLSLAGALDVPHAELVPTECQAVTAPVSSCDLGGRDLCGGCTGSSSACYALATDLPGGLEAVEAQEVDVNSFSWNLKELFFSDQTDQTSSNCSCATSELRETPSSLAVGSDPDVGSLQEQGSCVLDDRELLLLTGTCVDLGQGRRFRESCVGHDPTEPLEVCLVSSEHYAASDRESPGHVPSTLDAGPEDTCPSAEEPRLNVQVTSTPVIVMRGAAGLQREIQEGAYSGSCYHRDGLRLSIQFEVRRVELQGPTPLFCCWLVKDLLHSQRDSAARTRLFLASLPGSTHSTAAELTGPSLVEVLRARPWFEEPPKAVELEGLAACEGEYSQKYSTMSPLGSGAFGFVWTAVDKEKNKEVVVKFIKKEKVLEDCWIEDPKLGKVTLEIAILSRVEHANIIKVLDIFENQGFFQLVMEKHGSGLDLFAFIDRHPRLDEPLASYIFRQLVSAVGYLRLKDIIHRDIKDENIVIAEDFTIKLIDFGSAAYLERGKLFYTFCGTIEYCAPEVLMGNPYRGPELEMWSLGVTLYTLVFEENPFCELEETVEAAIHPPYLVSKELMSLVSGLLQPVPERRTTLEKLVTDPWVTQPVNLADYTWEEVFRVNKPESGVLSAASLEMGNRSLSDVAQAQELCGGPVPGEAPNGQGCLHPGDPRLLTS
# Sequence of CHEK2 (human) (O96017 whole entry, looked up): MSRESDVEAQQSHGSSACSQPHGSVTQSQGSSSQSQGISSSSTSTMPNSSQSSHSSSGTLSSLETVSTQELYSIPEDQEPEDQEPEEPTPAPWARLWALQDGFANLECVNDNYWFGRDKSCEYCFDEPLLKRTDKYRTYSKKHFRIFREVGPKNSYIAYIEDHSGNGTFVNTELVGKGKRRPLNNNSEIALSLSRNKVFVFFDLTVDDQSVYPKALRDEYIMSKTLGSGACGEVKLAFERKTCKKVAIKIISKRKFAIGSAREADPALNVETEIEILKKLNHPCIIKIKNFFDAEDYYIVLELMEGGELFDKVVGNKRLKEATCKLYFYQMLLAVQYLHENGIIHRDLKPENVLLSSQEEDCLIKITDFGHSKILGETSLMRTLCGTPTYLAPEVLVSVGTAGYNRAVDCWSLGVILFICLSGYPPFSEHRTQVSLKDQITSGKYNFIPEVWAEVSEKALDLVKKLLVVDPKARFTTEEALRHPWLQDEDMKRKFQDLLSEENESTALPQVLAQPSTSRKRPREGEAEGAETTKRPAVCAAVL
smiles,measurement,setting,value
N#C/C(=C\c1ccc(O)c(O)c1)C(=O)NCc1ccccc1,residual activity,PASK (human),95.1%
same,residual activity,CHEK2 (human),97.5%
same,residual activity,EPHA5 (human),103%
same,residual activity,MERTK (human),89%
same,residual activity,TGFBR2 (human),111%
same,residual activity,HIPK4 (human),106%
same,residual activity,RPS6KA5 KD2 (human),102%
same,residual activity,MAP2K1 (human),94%
same,residual activity,DYRK1A (human),102%
same,residual activity,PDGFRA (human),110%
same,residual activity,TSSK2 (human),90%
same,residual activity,MAPKAPK5 (human),94.2%
same,residual activity,DDR2 (human),97.2%
same,residual activity,NEK6 (human),104%
same,residual activity,BLK (human),95.6%
same,residual activity,MUSK (human),97.9%
same,residual activity,GRK4 (human),101%
same,residual activity,DAPK2 (human),98.5%
same,residual activity,PAK1 (human),97.7%
same,residual activity,NEK9 (human),97.2%
same,residual activity,CDK4 CCND1 (human),109%
same,residual activity,PIM2 (human),97.1%
same,residual activity,ERBB2 (human),97.6%
same,residual activity,CSNK2A2 (human),81.9%
same,residual activity,WNK2 (human),104%
same,residual activity,ULK2 (human),106%
same,residual activity,IKBKE (human),105%
same,residual activity,MARK2 (human),88.2%
same,residual activity,EPHB4 (human),88.2%
same,residual activity,CSNK1D (human),98.3%
same,residual activity,MINK1 (human),97.9%
same,residual activity,FRK (human),97.4%
same,residual activity,PRKD1 (human),92.5%
same,residual activity,CLK4 (human),94%
same,residual activity,CSF1R (human),100%
same,residual activity,SRPK2 (human),96.6%
same,residual activity,MAPK9 (human),103%
same,residual activity,SRMS (human),104%
same,residual activity,PIM1 (human),108%
same,residual activity,BRSK2 (human),99.3%
same,residual activity,MAP3K14 (human),109%
C[C@@H]1CCN(C(=O)CC#N)C[C@@H]1N(C)c1ncnc2[nH]ccc12,residual activity,PASK (human),105%
same,residual activity,CHEK2 (human),104%
same,residual activity,EPHA5 (human),99.9%
same,residual activity,MERTK (human),114%
same,residual activity,TGFBR2 (human),98.8%
same,residual activity,HIPK4 (human),96.2%
same,residual activity,RPS6KA5 KD2 (human),94.8%
same,residual activity,MAP2K1 (human),112%
same,residual activity,DYRK1A (human),102%
same,residual activity,PDGFRA (human),104%
same,residual activity,TSSK2 (human),87.9%
same,residual activity,MAPKAPK5 (human),97.3%
same,residual activity,DDR2 (human),104%
same,residual activity,NEK6 (human),83.2%
same,residual activity,MUSK (human),103%
same,residual activity,GRK4 (human),93.5%
same,residual activity,DAPK2 (human),89.5%
same,residual activity,PAK1 (human),108%
same,residual activity,NEK9 (human),96.2%
same,residual activity,CDK4 CCND1 (human),94.1%
same,residual activity,PIM2 (human),116%
same,residual activity,ERBB2 (human),109%
same,residual activity,CSNK2A2 (human),96.6%
same,residual activity,MAP4K4 (human),101%
same,residual activity,WNK2 (human),101%
same,residual activity,ULK2 (human),92%
same,residual activity,IKBKE (human),94.8%
same,residual activity,MARK2 (human),91.8%
same,residual activity,EPHB4 (human),89.8%
same,residual activity,MINK1 (human),100%
same,residual activity,FRK (human),106%
same,residual activity,PRKD1 (human),97.3%
same,residual activity,CLK4 (human),111%
same,residual activity,CSF1R (human),101%
same,residual activity,SRPK2 (human),90.7%
same,residual activity,MAPK9 (human),112%
same,residual activity,SRMS (human),95.8%
same,residual activity,PIM1 (human),102%
same,residual activity,BRSK2 (human),86.9%
same,residual activity,MAP3K14 (human),107%
O=C1C(Cl)=C(N2C(=O)CCC2=O)C(=O)c2ccccc21,residual activity,PASK (human),103%
same,residual activity,CHEK2 (human),95.7%
same,residual activity,EPHA5 (human),113%
same,residual activity,MERTK (human),90.3%
same,residual activity,TGFBR2 (human),130%
same,residual activity,HIPK4 (human),98.2%
same,residual activity,RPS6KA5 KD2 (human),101%
same,residual activity,MAP2K1 (human),76.5%
same,residual activity,DYRK1A (human),99.1%
same,residual activity,PDGFRA (human),109%
same,residual activity,TSSK2 (human),103%
same,residual activity,MAPKAPK5 (human),73.6%
same,residual activity,DDR2 (human),95.8%
same,residual activity,NEK6 (human),104%
same,residual activity,MUSK (human),104%
same,residual activity,GRK4 (human),97.6%
same,residual activity,DAPK2 (human),133%
same,residual activity,PAK1 (human),96.3%
same,residual activity,NEK9 (human),98.3%
same,residual activity,CDK4 CCND1 (human),103%
same,residual activity,PIM2 (human),123%
same,residual activity,ERBB2 (human),95.4%
same,residual activity,CSNK2A2 (human),100%
same,residual activity,MAP4K4 (human),93.7%
same,residual activity,WNK2 (human),108%
same,residual activity,ULK2 (human),108%
same,residual activity,IKBKE (human),99.6%
same,residual activity,MARK2 (human),79.4%
same,residual activity,EPHB4 (human),98.7%
same,residual activity,CSNK1D (human),99.4%
same,residual activity,MINK1 (human),95.6%
same,residual activity,FRK (human),103%
same,residual activity,PRKD1 (human),104%
same,residual activity,CLK4 (human),94.1%
same,residual activity,CSF1R (human),102%
same,residual activity,SRPK2 (human),100%
same,residual activity,MAPK9 (human),93.6%
same,residual activity,SRMS (human),108%
same,residual activity,PIM1 (human),100%
same,residual activity,BRSK2 (human),100%
same,residual activity,MAP3K14 (human),102%
Cn1c2ccccc2c2c3c(c4c5ccccc5n(CCC#N)c4c21)CNC3=O,residual activity,PASK (human),84.3%
same,residual activity,CHEK2 (human),50.2%
same,residual activity,EPHA5 (human),88.2%
same,residual activity,MERTK (human),59.9%
same,residual activity,TGFBR2 (human),117%
same,residual activity,HIPK4 (human),103%
same,residual activity,RPS6KA5 KD2 (human),23.7%
same,residual activity,MAP2K1 (human),90.2%
same,residual activity,DYRK1A (human),46.3%
same,residual activity,PDGFRA (human),83.5%
same,residual activity,TSSK2 (human),74.3%
same,residual activity,MAPKAPK5 (human),127%
same,residual activity,DDR2 (human),73.3%
same,residual activity,NEK6 (human),103%
same,residual activity,MUSK (human),34.8%
same,residual activity,GRK4 (human),75.1%
same,residual activity,DAPK2 (human),84.4%
same,residual activity,PAK1 (human),83.3%
same,residual activity,NEK9 (human),96.9%
same,residual activity,CDK4 CCND1 (human),27.5%
same,residual activity,PIM2 (human),101%
same,residual activity,ERBB2 (human),107%
same,residual activity,CSNK2A2 (human),104%
same,residual activity,MAP4K4 (human),0.433%
same,residual activity,WNK2 (human),103%
same,residual activity,ULK2 (human),92.9%
same,residual activity,IKBKE (human),69.4%
same,residual activity,MARK2 (human),11.8%
same,residual activity,EPHB4 (human),96.3%
same,residual activity,CSNK1D (human),97.5%
same,residual activity,MINK1 (human),2.48%
same,residual activity,FRK (human),84.7%
same,residual activity,PRKD1 (human),17.3%
same,residual activity,CLK4 (human),66.2%
same,residual activity,CSF1R (human),84.1%
same,residual activity,SRPK2 (human),95%
same,residual activity,MAPK9 (human),86%
same,residual activity,SRMS (human),96.6%
same,residual activity,PIM1 (human),36.1%
same,residual activity,BRSK2 (human),26.3%
same,residual activity,MAP3K14 (human),84.1%
CO[C@@H]1[C@H](N(C)C(=O)c2ccccc2)C[C@H]2O[C@]1(C)n1c3ccccc3c3c4c(c5c6ccccc6n2c5c31)C(=O)NC4,residual activity,PASK (human),90.9%
same,residual activity,CHEK2 (human),85.1%
same,residual activity,MERTK (human),78.7%
same,residual activity,TGFBR2 (human),99.1%
same,residual activity,HIPK4 (human),90.5%
same,residual activity,RPS6KA5 KD2 (human),13.2%
same,residual activity,MAP2K1 (human),109%
same,residual activity,PDGFRA (human),30%
same,residual activity,TSSK2 (human),89.1%
same,residual activity,MAPKAPK5 (human),92%
same,residual activity,DDR2 (human),380%
same,residual activity,NEK6 (human),110%
same,residual activity,MUSK (human),44.6%
same,residual activity,GRK4 (human),94.4%
same,residual activity,DAPK2 (human),105%
same,residual activity,PAK1 (human),35.1%
same,residual activity,NEK9 (human),64.4%
same,residual activity,CSNK2A2 (human),87.8%
same,residual activity,WNK2 (human),111%
same,residual activity,ULK2 (human),95.7%
same,residual activity,IKBKE (human),9.85%
same,residual activity,EPHB4 (human),110%
same,residual activity,CSNK1D (human),101%
same,residual activity,MINK1 (human),29.2%
same,residual activity,FRK (human),65.8%
same,residual activity,CLK4 (human),22.6%
same,residual activity,CSF1R (human),6.65%
same,residual activity,MAPK9 (human),82.7%
same,residual activity,SRMS (human),97.6%
same,residual activity,PIM1 (human),41.2%
same,residual activity,BRSK2 (human),16.4%
same,residual activity,MAP3K14 (human),113%
